Experimental data published in patent publication US6777564B2, “Anthraquinone compound” (Industrial Technology Research Institute, priority 2001, dated 2004).
Converted amounts (≈) assume the structure as drawn. Read-outs that look alike come from different tables or passages of the source.

How the values were obtained:
HIV-1 RT(p66) = target: T1, HIV-1 RT(p66) (Human immunodeficiency virus type 1 group M subtype B, UniProt P04585); test: anti-virus activity test, HIV-1 RT(p66) inhibition; type: biochemical; conditions: for IC50 / activity inhibition (%) / inhibition at 200 µg/mL: HIV-1 RT(p66); for activity inhibition (%) / inhibition at 200 µg/mL: at 200 μg/ml; for activity inhibition / anti-virus ability (in words): at the concentration of 200 μg/ml
T1 construct: 1-10 at 200 μg/ml to HIV-1 RT(p66)

[1] = test system: LNCaP: human prostate cell; test: anti-cancer activity test (cytotoxicity), LNCaP; type: cell-based; conditions: LNCaP cells; for IC50: Homo sapiens
human cancer cell lines = test: anti-cancer activity test, overall over the cell line panel; type: cell-based; conditions: summary of Table 1
Protocol: (§1) The compounds were further screened on 60 human cancer cell lines by Developmental Therapeutics Program Human Tumor Cell Line Screen set up by the National Cancer Institute of the U. S. A. The screening procedures are described briefly hereinafter. Cell suspensions that were diluted according to the particular cell type and the expected target cell density (5000-40,000 cells per well based on cell growth characteristics) were added by pipet (100 μL) into 96-well microtiterplates. Inoculates were allowed a preincubation period of 24 hours at 37° C. for stabilization. Dilutions at twice the intended test concentration were added in 100 μL aliquots to the microtiter plate wells at time zero. Usually, test compounds were evaluated at five 10-fold dilutions. In routine testing, the highest well concentration was 10^−4 M, but for the standard agents the highest well concentration used depended on the agent. Incubations lasted for 48 hours in 5% CO2 atmosphere and 100% humidity. The cells were assayed by using the sulforhodamine B assay. A plate reader was used to read the optical densities, and a microcomputer processed the optical densities into the special concentration parameters. The results of these tests with representative compounds of the present invention appear in Table 1 and 2

U373: human glioma cell = test: anti-cancer activity test (cytotoxicity), U373; type: cell-based; conditions: U373 cells; for IC50: Homo sapiens, U373 MG
[2] = test system: ZR-75-1: human breast cell; test: anti-cancer activity test (cytotoxicity), ZR-75-1; type: cell-based; conditions: ZR-75-1 cells; for IC50: Homo sapiens
BC-1: human breast cell = test: anti-cancer activity test (cytotoxicity), BC 1; type: cell-based; conditions: BC 1 cells; for IC50: Homo sapiens, BC1
[3] = test system: KB: human oral epidormaid Carcinama cell; test: anti-cancer activity test (cytotoxicity), KB; type: cell-based; conditions: KB cells; for IC50: Homo sapiens
Protocol: as §1

[4] = test system: Mel2: human melanoma cell; test: anti-cancer activity test (cytotoxicity), Mel2; type: cell-based; conditions: Mel2 cells; for IC50: Homo sapiens
[5] = test system: A431: human squamous cell; test: anti-cancer activity test (cytotoxicity), A431; type: cell-based; conditions: A431 cells; for IC50: Homo sapiens, A-431
[6] = test system: KB-V: drug resisteant KB cell; test: anti-cancer activity test (cytotoxicity), KB-V; type: cell-based, human; conditions: KB-V cells; for IC50: Homo sapiens
[7] = test system: HT-1088: human fibrosarcoma cell; test: anti-cancer activity test (cytotoxicity), HT; type: cell-based; conditions: HT cells; for IC50: Homo sapiens
[8] = test system: P-388: mouse lymphaid Macrophage cell; test: anti-cancer activity test (cytotoxicity), P-388; type: cell-based; conditions: P-388 cells; for IC50: Mus musculus, P388
Col2: human colon cell = test: anti-cancer activity test (cytotoxicity), Col2; type: cell-based; conditions: Col2 cells; for IC50: Homo sapiens
Lu1: human lung cell = test: anti-cancer activity test (cytotoxicity), Lu1; type: cell-based; conditions: Lu1 cells; for IC50: Homo sapiens
[9] = read-out: IC50 (μg/ml) (converted)

Compound	activity inhibition (%) (HIV-1 RT(p66))	activity inhibition / anti-virus ability (in words) (HIV-1 RT(p66))	IC50 LNCaP [1]	cytotoxic activity to cancer cell lines (in words) (human cancer cell lines)	IC50 U373 (U373: human glioma cell)	IC50 (HIV-1 RT(p66); [9])	inhibition at 200 µg/mL (HIV-1 RT(p66))	IC50 [1]	IC50 (U373: human glioma cell)	IC50 [2]	IC50 (BC-1: human breast cell)	IC50 [3]	IC50 [4]	IC50 [5]	IC50 ([6]; with vinblastine (+VLB))	IC50 ([6]; without vinblastine (−VLB))	IC50 [7]	IC50 [8]	IC50 (Col2: human colon cell)	IC50 (Lu1: human lung cell)	further results
N=C(N)NCC(=O)Nc1ccc2c(c1)C(=O)c1ccccc1C2=O [Example 4, 2-guanidinoacetamido anthraquinone]	99.4%	excellent effect on activity inhibition	12.5 µg/mL (≈ 38.8 µM)	more effective to most cancer cell lines	0.88 µg/mL (≈ 2.73 µM)																IC50 (HIV-1 RT(p66)): 18.9 µg/mL; IC50 ZR-75-1 [2]: 3.6 µg/mL (≈ 11.2 µM); IC50 BC 1 (BC-1: human breast cell): 4.9 µg/mL (≈ 15.2 µM); IC50 KB [3]: 2.9 µg/mL (≈ 9 µM); IC50 Mel2 [4]: 9.8 µg/mL (≈ 30.4 µM); IC50 A431 [5]: 0.8 µg/mL (≈ 2.48 µM); IC50 KB-V (+VLB) ([6]; with vinblastine (+VLB)): 7.5 µg/mL (≈ 23.3 µM); IC50 KB-V (−VLB) ([6]; without vinblastine (−VLB)): >20 µg/mL; IC50 HT [7]: 2.1 µg/mL (≈ 6.52 µM); IC50 P-388 [8]: >5 µg/mL; IC50 Col2 (Col2: human colon cell): 12.1 µg/mL (≈ 37.5 µM); IC50 Lu1 (Lu1: human lung cell): 14.1 µg/mL (≈ 43.7 µM)
N=C(N)NCC(=O)Nc1cccc2c1C(=O)c1cccc(N)c1C2=O [Example 3, 5-amino-1-guanido acetamidoanthraquinone]		excellent effect on activity inhibition		more effective to most cancer cell lines		20.5 µM	99.6%	9 µg/mL (≈ 26.7 µM)	1 µg/mL (≈ 2.96 µM)	1.7 µg/mL (≈ 5.04 µM)	3 µg/mL (≈ 8.89 µM)	4.2 µg/mL (≈ 12.5 µM)	12 µg/mL (≈ 35.6 µM)	0.2 µg/mL (≈ 0.593 µM)	13.2 µg/mL (≈ 39.1 µM)	> 20 µg/mL	2.5 µg/mL (≈ 7.41 µM)	> 5 µg/mL	4.7 µg/mL (≈ 13.9 µM)	9.3 µg/mL (≈ 27.6 µM)	
N=C(N)NCC(=O)Nc1ccc2c(c1NC(=O)CNC(=N)N)C(=O)c1ccccc1C2=O [Example 10, 1,2-di(guanidinoacetamido)anthraquinone]		excellent effect on activity inhibition		more effective to most cancer cell lines		69.4 µM	92.3%	18 µg/mL (≈ 41.2 µM)	6.9 µg/mL (≈ 15.8 µM)	> 20 µg/mL	10.2 µg/mL (≈ 23.4 µM)	3.2 µg/mL (≈ 7.33 µM)	> 20 µg/mL	1.7 µg/mL (≈ 3.9 µM)	6.3 µg/mL (≈ 14.4 µM)	> 20 µg/mL	8.9 µg/mL (≈ 20.4 µM)	> 5 µg/mL	> 20 µg/mL	> 20 µg/mL	
1-benzyl carbamidoacetamidoanthraquinone [Example 1]	47.0%	anti-virus ability but not so strong as the others	14.7 µg/mL		>20 µg/mL																IC50 ZR-75-1 [2]: >20 µg/mL; IC50 BC 1 (BC-1: human breast cell): >20 µg/mL; IC50 KB [3]: >20 µg/mL; IC50 Mel2 [4]: >20 µg/mL; IC50 A431 [5]: >20 µg/mL; IC50 KB-V (+VLB) ([6]; with vinblastine (+VLB)): 3.8 µg/mL; IC50 KB-V (−VLB) ([6]; without vinblastine (−VLB)): >20 µg/mL; IC50 HT [7]: 13.9 µg/mL; IC50 P-388 [8]: >5 µg/mL; IC50 Col2 (Col2: human colon cell): >20 µg/mL; IC50 Lu1 (Lu1: human lung cell): >20 µg/mL
N=C(N)NCC(=O)Nc1ccc2c(c1)C(=O)c1ccc(N)cc1C2=O [Example 7, 6-amino-2-guanidoacetamidoanthraquinone]		excellent effect on activity inhibition		more effective to most cancer cell lines		37.1 µM	99.7%	6.3 µg/mL (≈ 18.7 µM)	0.4 µg/mL (≈ 1.19 µM)	3.3 µg/mL (≈ 9.78 µM)	3.6 µg/mL (≈ 10.7 µM)	1.2 µg/mL (≈ 3.56 µM)	6.8 µg/mL (≈ 20.2 µM)	0.6 µg/mL (≈ 1.78 µM)	> 20 µg/mL	> 20 µg/mL	1.6 µg/mL (≈ 4.74 µM)	1.1 µg/mL (≈ 3.26 µM)	3.2 µg/mL (≈ 9.49 µM)	> 20 µg/mL	
